Measured values published in PubChem BioAssay (NCI).
Several values for one entry are separate records, joined by “and”; a condition that tells them apart may be missing. Equal values may be shown once.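 1) Cells in 96-well plates. 2) Compound, 48 h, 5 concentrations. 3) Linear interpolation between surrounding doses. 4) Unreached endpoint = highest concentration. The concentration for 50% growth inhibition is given as GI50. TGI: concentration producing complete growth inhibition.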

Experiments:
Experiment in all cases: DTP human tumour cell line panel, 48 h
[1] = test system: NCI-H460 lung
[2] = test system: HCT-15 colon
[3] = test system: MDA-MB-435
[4] = test system: SNB-75 CNS
[5] = test system: MDA-MB-231 breast
[6] = test system: SF-268 CNS
[7] = test system: OVCAR-3 ovarian
[8] = test system: CAKI-1 renal
[9] = test system: HS 578T breast
[10] = test system: SK-MEL-2 melanoma
[11] = test system: COLO 205 colon
[12] = test system: MCF7 breast
[13] = test system: SK-MEL-5 melanoma
[14] = test system: ACHN renal
[15] = test system: OVCAR-4 ovarian
[16] = test system: T-47D breast
[17] = test system: NCI-H23 lung
[18] = test system: UACC-257 melanoma
[19] = test system: HOP-62 NSCLC
[20] = test system: NCI-H226 lung
[21] = test system: A549 NSCLC
[22] = test system: CCRF-CEM leukemia
[23] = test system: TK-10 renal
[24] = test system: SR leukemia
[25] = test system: SN12C renal
[26] = test system: HL-60(TB) leukemia
[27] = test system: MOLT-4 leukemia
[28] = test system: SF-539 CNS
[29] = test system: NCI-H522 lung
[30] = test system: SF-295 CNS
[31] = test system: RPMI-8226 leukemia
[32] = test system: U251 CNS
[33] = test system: 786-0 renal
[34] = test system: UACC-62 melanoma
[35] = test system: BT-549 breast
[36] = test system: HCT-116 colon
[37] = test system: SW-620 colon
[38] = test system: UO-31 renal
[39] = test system: OVCAR-5 ovarian
[40] = test system: SNB-19 CNS
[41] = test system: EKVX NSCLC
[42] = test system: HT29 colon
[43] = test system: PC-3 prostate
[44] = test system: SK-OV-3 ovarian
[45] = test system: K-562 leukemia
[46] = test system: IGROV1 ovarian
[47] = test system: SK-MEL-28 melanoma
[48] = test system: M14 melanoma
[49] = test system: KM12 colon
[50] = test system: DU-145 prostate
[51] = test system: NCI/ADR-RES ovarian
[52] = test system: MALME-3M melanoma
[53] = test system: HOP-92 NSCLC
[54] = test system: A498 renal
[55] = test system: LOX IMVI melanoma
[56] = test system: OVCAR-8 ovarian
[57] = test system: HCC-2998 colon
[58] = test system: MDA-MB-468 breast

SMILES: COc1ccc(C(=O)/C=C/c2ccc(OCc3ccccc3)c(OC)c2)cc1OC
- GI50 [1]: 4.6 µM
- TGI [1]: 38.3 µM
- GI50 [2]: 3.45 µM
- TGI [2]: 47.6 µM
- GI50 [3]: 12 µM
- TGI [3]: 59.6 µM
- GI50 [4]: 18.7 µM
- TGI [4]: 77.2 µM
- GI50 [5]: 8.48 µM
- TGI [5]: 78.9 µM
- GI50 [6]: 10.8 µM
- TGI [6]: > 100 µM
- GI50 [7]: 4.48 µM
- TGI [7]: > 100 µM
- GI50 [8]: 16.7 µM
- TGI [8]: > 100 µM
- GI50 [9]: 18.4 µM
- TGI [9]: > 100 µM
- GI50 [10]: 17.4 µM
- TGI [10]: 60.5 µM
- GI50 [11]: 15.7 µM
- TGI [11]: > 100 µM
- GI50 [12]: 3.44 µM
- TGI [12]: > 100 µM
- GI50 [13]: 17.4 µM
- TGI [13]: 43.1 µM
- GI50 [14]: 15.3 µM
- TGI [14]: > 100 µM
- GI50 [15]: 4.28 µM
- TGI [15]: > 100 µM
- GI50 [16]: 5.46 µM
- TGI [16]: > 100 µM
- GI50 [17]: 6.95 µM
- TGI [17]: 43 µM
- GI50 [18]: 29.3 µM
- TGI [18]: > 100 µM
- GI50 [19]: 4.95 µM
- TGI [19]: > 100 µM
- GI50 [20]: 5.34 µM
- TGI [20]: 87.3 µM
- GI50 [21]: 10.4 µM
- TGI [21]: > 100 µM
- GI50 [22]: 4.01 µM
- TGI [22]: > 100 µM
- GI50 [23]: 21.4 µM
- TGI [23]: > 100 µM
- GI50 [24]: 2.8 µM
- TGI [24]: > 100 µM
- GI50 [25]: 4.48 µM
- TGI [25]: 45.7 µM
- GI50 [26]: 13.4 µM
- TGI [26]: 61.2 µM
- GI50 [27]: 4.47 µM
- TGI [27]: > 100 µM
- GI50 [28]: 3.38 µM
- TGI [28]: 13.1 µM
- GI50 [29]: 4.86 µM
- TGI [29]: 36.3 µM
- GI50 [30]: 9.59 µM
- TGI [30]: > 100 µM
- GI50 [31]: 3.02 µM
- TGI [31]: > 100 µM
- GI50 [32]: 3.16 µM
- TGI [32]: > 100 µM
- GI50 [33]: 25.4 µM
- TGI [33]: > 100 µM
- GI50 [34]: 6.42 µM
- TGI [34]: > 100 µM
- GI50 [35]: 5.08 µM
- TGI [35]: 55.7 µM
- GI50 [36]: 3.56 µM
- TGI [36]: > 100 µM
- GI50 [37]: 3.64 µM
- TGI [37]: > 100 µM
- GI50 [38]: 5.38 µM
- TGI [38]: > 100 µM
- GI50 [39]: 12.5 µM
- TGI [39]: 92.2 µM
- GI50 [40]: 8.3 µM
- TGI [40]: > 100 µM
- GI50 [41]: 11.4 µM
- TGI [41]: > 100 µM
- GI50 [42]: 3.52 µM
- TGI [42]: > 100 µM
- GI50 [43]: 7.05 µM
- TGI [43]: > 100 µM
- GI50 [44]: 40.5 µM
- TGI [44]: > 100 µM
- GI50 [45]: 3.06 µM
- TGI [45]: > 100 µM
- GI50 [46]: 6.33 µM
- TGI [46]: > 100 µM
- GI50 [47]: 34 µM
- TGI [47]: > 100 µM
- GI50 [48]: 27.4 µM
- TGI [48]: > 100 µM
- GI50 [49]: 5.19 µM
- TGI [49]: > 100 µM
- GI50 [50]: 5.78 µM
- TGI [50]: > 100 µM
- GI50 [51]: 5.08 µM
- TGI [51]: 39.3 µM
- GI50 [52]: 41.1 µM
- TGI [52]: > 100 µM
- GI50 [53]: 6.03 µM
- TGI [53]: > 100 µM
- GI50 [54]: 20.3 µM
- TGI [54]: 94.2 µM
- GI50 [55]: 4.11 µM
- TGI [55]: 37.1 µM
- GI50 [56]: 3.6 µM
- TGI [56]: > 100 µM
- GI50 [57]: 7.06 µM
- TGI [57]: 30 µM
- GI50 [58]: 2.15 µM and 3.99 µM
- TGI [58]: 7.35 µM and 32.2 µM
